± gives the standard deviation of the averaged measurements.
Experiments:
Details in all cases: treatment time: 3 days
UT-SCC-24A [1] = test: drug sensitivity score (DSS); higher = more sensitive
Description: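 HNSCC cell lines (500 cells/well, 384-well) were cultured on plastic, on top of (2D) or embedded (3D) in Matrigel or human leiomyoma matrix Myogel (500 ug/mL; Myogel 3D mixed with rat collagen I). Cells were treated for 3 days with 5 ten-fold concentrations of each drug, and viability was read by CellTiter-Glo. Suffixes _1/_2/_3 on drug names are replicates.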

UT-SCC-106A [2] = test: maximal % inhibition of viability relative to DMSO; higher = stronger effect
In short: (§1)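 Three growth formats were used for HPV-negative HNSCC cell lines in 384-well plates at 500 cells/well: bare plastic, wells coated with Matrigel or Myogel (500 µg/mL), and embedding in Matrigel or Myogel plus rat collagen I. Compounds were added at five 10-fold concentrations, and after 3 days CellTiter-Glo 2.0 luminescence was recorded and normalised to vehicle (0.1% DMSO) and cell-killing control wells. IC50, maximal inhibition and drug sensitivity score came from percent-inhibition dose–response fitting in the FIMM pipeline.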

UT-SCC-14 [3] = test: as above
In short: as §1

UT-SCC-28 [4] = test: as above
In short: as §1

UT-SCC-24A [5] = test: maximal % inhibition of viability relative to DMSO; higher = stronger effect
Description: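 HNSCC cell lines (500 cells/well, 384-well) were cultured on plastic, on top of (2D) or embedded (3D) in Matrigel or human leiomyoma matrix Myogel (500 ug/mL; Myogel 3D mixed with rat collagen I). Cells were treated for 3 days with 5 ten-fold concentrations of each drug, and viability was read by CellTiter-Glo. Viability was normalised to DMSO (0% inhibition) and 100 uM benzethonium chloride (100% inhibition) controls and fitted with the FIMM DSRT pipeline to give IC50 (nM), maximal % inhibition and the drug sensitivity score (DSS). Suffixes _1/_2/_3 on drug names are replicates.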

UT-SCC-106A [6] = test: drug sensitivity score (DSS); higher = more sensitive; extreme values may be limits of the assay
In short: as §1

UT-SCC-14 [7] = test: as above
In short: as §1

UT-SCC-24B = test: as above
In short: as §1

UT-SCC-28 [8] = test: as above
In short: as §1

UT-SCC-40 = test: as above
In short: as §1

UT-SCC-42A = test: as above
In short: as §1

UT-SCC-42B = test: as above
In short: as §1

UT-SCC-44 = test: as above
In short: as §1

UT-SCC-73 = test: as above
In short: as §1

UT-SCC-81 = test: as above
In short: as §1

UT-SCC-8 = test: as above
In short: as §1

[9] = culture condition: embedded in Matrigel
[10] = culture condition: embedded in Myogel + collagen I
[11] = culture condition: on top of Matrigel
[12] = culture condition: on top of Myogel
[13] = culture condition: plastic 2D (no matrix)

C=CC(=O)Nc1cc2c(Nc3ccc(F)c(Cl)c3)ncnc2cc1OCCCN1CCOCC1 [Canertinib]
drug sensitivity score (UT-SCC-24A [1]; [9]): 27.8 ± 2 DSS
drug sensitivity score (UT-SCC-24A [1]; [10]): 11 ± 3.6 DSS
drug sensitivity score (UT-SCC-24A [1]; [11]): 23.5 ± 0.87 DSS
drug sensitivity score (UT-SCC-24A [1]; [12]): 8.7 ± 0.2 DSS
drug sensitivity score (UT-SCC-24A [1]; [13]): 23.5 ± 1.5 DSS
maximal % inhibition of viability (UT-SCC-106A [2]; [9]): 95.6 ± 2%
maximal % inhibition of viability (UT-SCC-106A [2]; [10]): 95.1 ± 1.2%
maximal % inhibition of viability (UT-SCC-106A [2]; [11]): 97.3 ± 2.1%
maximal % inhibition of viability (UT-SCC-106A [2]; [12]): 97.6 ± 1%
maximal % inhibition of viability (UT-SCC-106A [2]; [13]): 98.83 ± 0.94%
maximal % inhibition of viability (UT-SCC-14 [3]; [9]): 99.23 ± 0.75%
maximal % inhibition of viability (UT-SCC-14 [3]; [10]): 98.8 ± 1.1%
maximal % inhibition of viability (UT-SCC-14 [3]; [11]): 99.7 ± 0.27%
maximal % inhibition of viability (UT-SCC-14 [3]; [12]): 98.7 ± 1.7%
maximal % inhibition of viability (UT-SCC-14 [3]; [13]): 98.5 ± 1.4%
maximal % inhibition of viability (UT-SCC-28 [4]; [9]): 82.3 ± 4.4%
maximal % inhibition of viability (UT-SCC-28 [4]; [10]): 90.8 ± 3.4%
maximal % inhibition of viability (UT-SCC-28 [4]; [11]): 86.1 ± 2.4%
maximal % inhibition of viability (UT-SCC-28 [4]; [13]): 80.9 ± 5.2%
maximal % inhibition of viability (UT-SCC-24A [5]; [9]): 99.57 ± 0.38%
maximal % inhibition of viability (UT-SCC-24A [5]; [10]): 99.17 ± 0.74%
maximal % inhibition of viability (UT-SCC-24A [5]; [11]): 99.7 ± 0.36%
maximal % inhibition of viability (UT-SCC-24A [5]; [12]): 99 ± 0.87%
maximal % inhibition of viability (UT-SCC-24A [5]; [13]): 99.5 ± 0.62%
drug sensitivity score (UT-SCC-106A [6]; [9]): 15.8 ± 1.5 DSS
drug sensitivity score (UT-SCC-106A [6]; [10]): 5.8 ± 0.1 DSS
drug sensitivity score (UT-SCC-106A [6]; [11]): 19.2 ± 1.5 DSS
drug sensitivity score (UT-SCC-106A [6]; [12]): 7.13 ± 0.71 DSS
drug sensitivity score (UT-SCC-106A [6]; [13]): 21 ± 0.93 DSS
drug sensitivity score (UT-SCC-14 [7]; [9]): 27 ± 0.3 DSS
drug sensitivity score (UT-SCC-14 [7]; [10]): 11.2 ± 2.8 DSS
drug sensitivity score (UT-SCC-14 [7]; [11]): 26.6 ± 0.94 DSS
drug sensitivity score (UT-SCC-14 [7]; [12]): 16.5 ± 2.1 DSS
drug sensitivity score (UT-SCC-14 [7]; [13]): 25.6 ± 1.9 DSS
drug sensitivity score (UT-SCC-24B; [9]): 17.8 ± 0.7 DSS
drug sensitivity score (UT-SCC-24B; [10]): 9.13 ± 0.25 DSS
drug sensitivity score (UT-SCC-24B; [11]): 18.1 ± 0.57 DSS
drug sensitivity score (UT-SCC-24B; [12]): 9.17 ± 0.12 DSS
drug sensitivity score (UT-SCC-24B; [13]): 26.2 ± 0.55 DSS
drug sensitivity score (UT-SCC-28 [8]; [9]): 4.2 ± 0.5 DSS
drug sensitivity score (UT-SCC-28 [8]; [10]): 8.6 ± 0.27 DSS
drug sensitivity score (UT-SCC-28 [8]; [11]): 7.8 ± 0.6 DSS
drug sensitivity score (UT-SCC-28 [8]; [13]): 7 ± 0.56 DSS
drug sensitivity score (UT-SCC-40; [9]): 27.4 ± 1.1 DSS
drug sensitivity score (UT-SCC-40; [10]): 10.4 ± 1.9 DSS
drug sensitivity score (UT-SCC-40; [11]): 26.2 ± 0.62 DSS
drug sensitivity score (UT-SCC-40; [12]): 10 ± 1.6 DSS
drug sensitivity score (UT-SCC-40; [13]): 18.6 ± 0.5 DSS
drug sensitivity score (UT-SCC-42A; [9]): 17.1 ± 0.32 DSS
drug sensitivity score (UT-SCC-42A; [10]): 7.67 ± 1.3 DSS
drug sensitivity score (UT-SCC-42A; [11]): 18.4 ± 1.2 DSS
drug sensitivity score (UT-SCC-42A; [12]): 9.8 ± 0.98 DSS
drug sensitivity score (UT-SCC-42A; [13]): 17.9 ± 0.98 DSS
drug sensitivity score (UT-SCC-42B; [9]): 23.7 ± 2.4 DSS
drug sensitivity score (UT-SCC-42B; [11]): 16.9 ± 2 DSS
drug sensitivity score (UT-SCC-42B; [12]): 6.83 ± 0.35 DSS
drug sensitivity score (UT-SCC-42B; [13]): 12 ± 1.2 DSS
drug sensitivity score (UT-SCC-44; [9]): 4 ± 0.3 DSS
drug sensitivity score (UT-SCC-44; [10]): 6.57 ± 1.5 DSS
drug sensitivity score (UT-SCC-44; [11]): 8.2 ± 0.27 DSS
drug sensitivity score (UT-SCC-44; [12]): 7.47 ± 2.1 DSS
drug sensitivity score (UT-SCC-44; [13]): 7.63 ± 1.1 DSS
drug sensitivity score (UT-SCC-73; [9]): 7.6 ± 1.1 DSS
drug sensitivity score (UT-SCC-73; [10]): 7.73 ± 2.5 DSS
drug sensitivity score (UT-SCC-73; [11]): 8.83 ± 0.23 DSS
drug sensitivity score (UT-SCC-73; [12]): 8.53 ± 0.75 DSS
drug sensitivity score (UT-SCC-73; [13]): 8.87 ± 0.15 DSS
drug sensitivity score (UT-SCC-81; [9]): 29.4 ± 1.3 DSS
drug sensitivity score (UT-SCC-81; [10]): 9.43 ± 3.1 DSS
drug sensitivity score (UT-SCC-81; [11]): 27.53 ± 0.12 DSS
drug sensitivity score (UT-SCC-81; [12]): 8.9 ± 0.27 DSS
drug sensitivity score (UT-SCC-81; [13]): 26.1 ± 0.51 DSS
drug sensitivity score (UT-SCC-8; [9]): 29.83 ± 0.058 DSS
drug sensitivity score (UT-SCC-8; [10]): 4.77 ± 0.81 DSS
drug sensitivity score (UT-SCC-8; [11]): 29.7 ± 0.64 DSS
drug sensitivity score (UT-SCC-8; [12]): 11.6 ± 2.1 DSS
drug sensitivity score (UT-SCC-8; [13]): 29 ± 0.85 DSS
